Here are results for one substance from patent US9481885B2, “Methods and compositions related to miR-21 and miR-29a, exosome inhibition, and cancer metastasis” (Ohio State Innovation Foundation, priority 2011, dated 2016).

Series [1] concerns spleen cells. In words: Flow-cytometric analysis of CD69 in spleen cells of WT and TLR7−/− mice. It is filed as cell-based, mouse. The following applies: cytofluorimetry. The method, then:
Experiments were performed to determine whether the miRNA-TLR interaction is functional, and assessed whether the miRNAs of interest induce the secretion of cytokines such as TNF-α and IL-6, whose production is increased by TLR activation. We isolated peritoneal macrophages from WT and TLR7^−/− B6 mice. Cells were treated with Dotap alone or with Dotap formulations of miR-16, -21, -29a, and -147, and an ELISA for TNF-α and IL-6 was performed. In the functional assays, included also were miR-147 and -574-5p, because they have a mature viral-derived sequence that induces cytokine production through the activation of TLR8 and TLR7, similar to that of RNA33 (FIG. 14A). […] We also treated spleen cells from WT and TLR7^−/− mice with the same miRNAs and assessed expression of CD69, an early activation marker of cells which has a role in inflammation and proliferation and which also is activated by TLR3. Polyinosinic:polycytidylic acid [poly (I:C)], a known agonist of TLR3, served as positive control.
Total splenocytes derived from WT and TLR7^−/− age- and sex-matched mice were prepared by harvesting the spleen and preparing a single-cell suspension. Red blood cells were eliminated by osmotic lysis using red blood cell lysis buffer (eBioscience). […] Cells were stained with phycoerythrin-conjugated anti-CD69 (BioLegend) antibody and analyzed using FACSCalibur flow cytometer (Becton Dickinson).

Series [2] relates to human peripheral blood mononuclear cells (PBMCs). In words: ELISA for TNF-α and IL-6 on human PBMCs. It is filed as cell-based. The following applies: human PBMCs from two healthy donors, Dotap formulations. The method, then: To investigate whether miRNA-induced activation of TLRs also occurs in human cells, an NF-κB reporter assay was performed in HEK-293 cells. NF-κB, a transcription factor modulating the expression of several cytokine genes, is activated by several TLRs, including the only ssRNA-binding human TLRs, TLR7 and TLR8. Therefore, we treated HEK-293 cells expressing human TLR7 or TLR8 (hereafter, TLR7- and TLR8-HEK-293 cells, respectively) with Dotap alone or with Dotap formulations of miR-16, -21, -29a, or -147 and performed an NF-κB reporter assay. As positive controls Gardiquimod and ssRNA40 were used, specific agonists of TLR7 and TLR8, respectively. […] To confirm this conclusion, transfected were TLR8-HEK-293 cells with a plasmid encoding a dominant negative form of TLR8 (TLR8DN) and treated these cells with the miRNAs of interest. In TLR8DN cells, the activation of NF-κB by miR-21 and miR-29a was abolished (FIG. 3F). Also, incubated were TLR7- and TLR8-expressing human peripheral blood mononuclear cells (PBMCs) from two healthy donors with Dotap alone or Dotap formulations of miR-16, -21, -27b, -29a, -147, -574-5p, or ssRNA40 and an ELISA was performed for TNF-α and IL-6. With the exception of PBMCs treated with Dotap alone and with Dotap-miR-16, each of the other miRNAs and ssRNA40 induced the production of TNF-α and IL-6 (FIGS. 3G-3J). […]
On the technique in general: In an ELISA, binding on a coated surface is turned into a signal by an enzyme label.

For “miR-147: synthetic mature miRNA (SEQ ID NO: 3), sequence similar to RNA33, Dotap formulation (GUGUGUGGAAAUGCUUCUGC; DOTAP formulation, further chemistry not given here)”, the CD69 activation entry in series [1] (spleen cells from TLR7−/− mice) is reported as “not”; in series [1] (spleen cells from WT mice) it was “induced”. In series [2], the “production of IL-6” value is listed as “induced”. Also, the “production of TNF-α” value in series [2] is reported as “induced”.
